The source of these data is ChEMBL document CHEMBL5678811 (Invest New Drugs, 2014).

Activity calls are given as the source filed them. The calls are words filed in the database; no cut-off is given here. Where only a bound is given, the exact number is not on record here.

The inhibition is the share of the control response that was lost under treatment.

Data set [1] concerns COLO 205. To be noted: Mus musculus, CD1, dose 50.0 mg/kg, route po.
The next data set deals with MDA-MB-468. The data set is described as follows: Cell cycle arrest in human MDA-MB-468 cells assessed as accumulation of cells at G2/M-phase at 0.16 uM measured after 24 hrs by propidium iodide staining based flow cytometry (reference value: 26.49%). The class given is functional. Background: A flow cytometer gives signals particle by particle.
The subject of data set [2] is MV4-11. Kind of data set: Cell cycle arrest in human MV4-11 cells assessed as accumulation of cells at G1-phase at 2.5 uM measured after 24 hrs by propidium iodide staining based flow cytometry (reference value: 61.42%). The class given is functional.
Data set [3] concerns MV4-11. Kind of data set: Cell cycle arrest in human MV4-11 cells assessed as accumulation of cells at S-phase at 0.08 uM measured after 24 hrs by propidium iodide staining based flow cytometry (reference value: 23.35%). The class given is functional.
A further data set is filed under the species Mus musculus. To be noted: CD1, dose 50.0 mg/kg, route po, time 22.0 day.
The subject of data set [4] is COLO 205. Kind of data set: In vivo inhibition of CDK4/CDK6 in human COLO 205 cells xenografted CD1 nu/nu mouse assessed as reduction in pHH3 expression at 12.5 to 50 mg/kg, po administered via gavage measured after 24 hrs by Western blot analysis. The class given is functional, organism-based. To be noted: dose 12.5-50 mg/kg. Background: Xenograft models place foreign cells or tissue in a host animal.

Data set [5] concerns MV4-11. Kind of data set: Cell cycle arrest in human MV4-11 cells assessed as accumulation of cells at G1-phase at 0.04 uM measured after 24 hrs by propidium iodide staining based flow cytometry (reference value: 61.42%). The class given is functional.
The subject of data set [6] is MV4-11. Kind of data set: Cell cycle arrest in human MV4-11 cells assessed as accumulation of cells at G1-phase at 0.08 uM measured after 24 hrs by propidium iodide staining based flow cytometry (reference value: 61.42%). Type of data set: functional.
Data set [7] in a line: Toxicity in human COLO 205 cells xenografted CD1 nu/nu mouse assessed as change in jejunum histology at 50 mg/kg, po administered daily via gavage for 56 days and measured on day 41 to 69 by histopathological analysis. Type of data set: organism-based. To be noted: in vivo, 1344 h, time 41-69 day.
The nature of data set [8]: Inhibition of recombinant human full-length N-terminal 6His-tagged/beta-subunit N-terminal GST tagged CK2 expressed in Sf21 insect cells at 200 nM using casein kinase 2 substrate peptide relative to control. The conditions noted are these: condition cancer.
Data set [9] deals with MV4-11. Kind of data set: Cell cycle arrest in human MV4-11 cells assessed as accumulation of cells at S-phase at 0.32 uM measured after 24 hrs by propidium iodide staining based flow cytometry (reference value: 23.35%). Type of data set: functional.
The nature of data set [10]: Toxicity in human Calu-6 cells xenografted CD1 nu/nu mouse assessed as body weight loss at 50 mg/kg, po administered once daily via gavage for 12 days followed by gemcitabine addition for 4 days and measured twice per week during compound dosing. The class given is organism-based. The conditions noted are these: in vivo, 384 h, time 16 day.
For data set [11], the system named is COLO 205. To be noted: Mus musculus, CD1, dose 25-50 mg/kg, route po.
Data set [12] concerns COLO 205. The conditions noted are these: Mus musculus, CD1, dose 100.0 mg/kg, route po, time 21.0 day.
The target in data set [13] is Cyclin-dependent kinase 5/CDK5 activator 1 (Homo sapiens) (UniProt Q00535+Q15078). To be noted: Sf21, dose 200.0 nM.
Description: Inhibition of recombinant human full-length N-terminal His6-tagged cdk5/N-terminal GST-tagged p35 expressed in baculovirus infected Sf21 cells at 200 nM using histone H1 as substrate relative to control
In data set [14] the test system is MV4-11. Kind of data set: Cell cycle arrest in human MV4-11 cells assessed as accumulation of cells at G1-phase at 1.25 uM measured after 24 hrs by propidium iodide staining based flow cytometry (reference value: 61.42%). Type of data set: functional.
In data set [15] the test system is MV4-11. The data set is described as follows: Cell cycle arrest in human MV4-11 cells assessed as accumulation of cells at G1-phase at 5 uM measured after 24 hrs by propidium iodide staining based flow cytometry (reference value: 61.42%). The class given is functional.
The test system of data set [16] is COLO 205. The conditions noted are these: Mus musculus, CD1, dose 50.0 mg/kg, route po. This is another data set of the same source.
The subject of the next data set is Calu-6. To be noted: Homo sapiens, dose 50.0 mg/kg, route po, time 21.0 day.
Data set [17] is described as follows: Toxicity in human COLO 205 cells xenografted CD1 nu/nu mouse assessed as body weight loss at 50 mg/kg, po administered daily via gavage for 2 cycles of 3 weeks on/1 week rest. Type of data set: organism-based. To be noted: in vivo.
For data set [18], the system named is COLO 205. The conditions noted are these: Mus musculus, CD1, dose 100.0 mg/kg, route po, time 21.0 day. This is another data set of the same source.
Data set [19] deals with Glycogen synthase kinase-3 beta (Homo sapiens) (UniProt P49841). To be noted: dose 200.0 nM.
Description: Inhibition of human GSK3beta relative to control
For data set [20], the target named is T1, Dual specificity tyrosine-phosphorylation-regulated kinase 2 (Homo sapiens) (UniProt Q92630).
T1 sequence (whole entry): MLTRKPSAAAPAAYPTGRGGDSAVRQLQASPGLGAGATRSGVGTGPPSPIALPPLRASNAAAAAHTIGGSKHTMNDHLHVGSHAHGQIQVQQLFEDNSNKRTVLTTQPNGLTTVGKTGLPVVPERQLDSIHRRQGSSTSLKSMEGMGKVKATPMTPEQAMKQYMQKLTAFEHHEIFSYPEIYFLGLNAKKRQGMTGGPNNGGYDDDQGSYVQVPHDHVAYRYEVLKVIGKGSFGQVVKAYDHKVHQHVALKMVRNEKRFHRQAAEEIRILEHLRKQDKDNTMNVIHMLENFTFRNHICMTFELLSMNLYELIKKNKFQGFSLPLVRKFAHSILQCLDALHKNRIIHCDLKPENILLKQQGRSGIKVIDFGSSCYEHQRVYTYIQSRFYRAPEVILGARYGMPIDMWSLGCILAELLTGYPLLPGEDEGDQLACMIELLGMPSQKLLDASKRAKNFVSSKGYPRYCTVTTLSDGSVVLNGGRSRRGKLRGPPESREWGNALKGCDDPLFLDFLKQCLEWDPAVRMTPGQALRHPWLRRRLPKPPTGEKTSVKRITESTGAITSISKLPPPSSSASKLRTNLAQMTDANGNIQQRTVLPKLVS
The conditions noted are these: Sf21, dose 200.0 nM.
Description: Inhibition of recombinant human full-length 6His-tagged DYRK2 expressed in baculovirus infected Sf21 insect cells at 200 nM using casein as substrate relative to control

A short description of data set [21]: Toxicity in human COLO 205 cells xenografted CD1 nu/nu mouse assessed as change in cecum histology at 50 mg/kg, po administered daily via gavage for 56 days and measured on day 41 to 69 by histopathological analysis. The class given is organism-based. The conditions noted are these: in vivo, 1344 h, time 41-69 day.

Cyclin-dependent kinase 5/CDK5 activator 1 (Homo sapiens), sequence (Q00535 whole entry): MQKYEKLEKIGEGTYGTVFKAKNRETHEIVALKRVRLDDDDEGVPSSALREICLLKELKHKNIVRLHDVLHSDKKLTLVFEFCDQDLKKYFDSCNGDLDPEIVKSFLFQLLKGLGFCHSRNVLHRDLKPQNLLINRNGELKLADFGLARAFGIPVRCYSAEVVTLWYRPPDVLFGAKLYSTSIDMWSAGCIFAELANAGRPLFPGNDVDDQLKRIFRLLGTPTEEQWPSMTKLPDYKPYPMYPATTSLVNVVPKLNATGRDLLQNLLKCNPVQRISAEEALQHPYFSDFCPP
Cyclin-dependent kinase 5/CDK5 activator 1 (Homo sapiens), sequence (Q15078 99-307 partner limits assumed): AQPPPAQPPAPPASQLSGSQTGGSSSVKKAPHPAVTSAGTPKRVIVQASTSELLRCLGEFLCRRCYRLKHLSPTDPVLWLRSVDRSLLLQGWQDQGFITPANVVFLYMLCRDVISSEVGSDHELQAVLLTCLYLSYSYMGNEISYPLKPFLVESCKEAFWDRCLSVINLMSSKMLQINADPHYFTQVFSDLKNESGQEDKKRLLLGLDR
Glycogen synthase kinase-3 beta (Homo sapiens), sequence (P49841 whole entry, looked up): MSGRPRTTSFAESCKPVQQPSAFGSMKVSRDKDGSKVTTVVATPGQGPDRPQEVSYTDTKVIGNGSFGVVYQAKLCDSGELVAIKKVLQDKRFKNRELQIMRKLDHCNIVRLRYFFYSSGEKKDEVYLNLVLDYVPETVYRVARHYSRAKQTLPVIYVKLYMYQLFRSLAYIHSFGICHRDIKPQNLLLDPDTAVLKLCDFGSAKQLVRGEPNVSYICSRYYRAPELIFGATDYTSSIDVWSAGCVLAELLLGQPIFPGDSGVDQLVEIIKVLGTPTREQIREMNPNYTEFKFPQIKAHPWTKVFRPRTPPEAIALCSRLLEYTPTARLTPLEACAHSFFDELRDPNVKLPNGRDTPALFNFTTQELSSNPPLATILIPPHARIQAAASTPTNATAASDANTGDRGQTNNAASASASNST
Description for Calu-6: Antitumor activity against human Calu-6 cells xenografted in CD1 nu/nu mouse assessed as tumor growth inhibition at 50 mg/kg, po administered once daily via gavage for 21 days measured twice per week during compound dosing in presence of gemcitabine

Consider `CCN1CCN(Cc2ccc(Nc3ncc(F)c(-c4cc(F)c5nc(C)n(C(C)C)c5c4)n3)nc2)CC1` [ABEMACICLIB], for which the inhibition result with COLO 205 [1], in the data set on COLO 205 [4], in the data set with COLO 205 [12], in the data set on COLO 205 [16] and with COLO 205 [18] was “Active” each time. Further, the Activity with MDA-MB-468 is 24.55%; with MV4-11 [2], 94.06%; with MV4-11 [3] it was 8.59%; in the data set on MV4-11 [5], 77.47%; in the data set on MV4-11 [6], 89.44%; in data set [7], “Non-Toxic”. Besides, the Activity in the data set on MV4-11 [9] is listed as 2.68%; in data set [10], “Non-Toxic”; in the data set on MV4-11 [14], 93.98%; in the data set with MV4-11 [15], 95.56%; in data set [17], “Non-Toxic”; in [21], “Non-Toxic”. Further, the inhibition entry in the data set listed under Mus musculus was “inactive”. The inhibition at 0.2 µM in [8] is greater than 90%. Further, the inhibition entry with COLO 205 [11] is “Dose-Dependent Effect”; in data set [13], greater than 90%; in data set [19] it was greater than 90%; in data set [20] it was greater than 90%. The TGI result in the data set with Calu-6 is “Active”.
